Paper PMC10278063 (ACS Chemical Biology, 2023)
Values joined by “and” are separate entries in the source; they are usually repeats but may differ in a detail not shown here. Equal entries are not always repeated. No end group written: not given here. *: point of attachment. ClAc = O=C(CCl)*

Tested on: PSMD2
Assay type: binding, human

Row | Substance | ELISA S/N | PSMD2 binding compared with MC3
1 | ClAc-FRRNVNWWRLYC (also: sidechain bridge or staple (positions not given here)) [hit 5] | > 30 | equivalent or better binding
2 | ClAc-FSALRHIAIFRYC (also: sidechain bridge or staple (positions not given here)) [hit 2] | > 30 | equivalent or better binding
3 | ClAc-FSRNAGFWARYC (also: sidechain bridge or staple (positions not given here)) [hit 3] | 49.0 and > 30 | equivalent or better binding
